Results taken from US20110183991A1, “5HT7 RECEPTOR LIGANDS AND COMPOSITIONS COMPRISING THE SAME” (LABORATORIOS DEL DR. ESTEVE, S.A., priority 2008, published 2011).
Like-named read-outs stand apart in the source and are kept apart here. Values belong to the compound of their own block, whether it stands above or below them.

Biological target: T1, Cloned Human Serotonin Receptor, Subtype 7 (h5HT7), expressed in CHO cells (Homo sapiens, UniProt P34969)
T1 construct: purchased PerkinElmer 6120512; host or cells: CHO cells
T1 sequence (P34969 whole entry): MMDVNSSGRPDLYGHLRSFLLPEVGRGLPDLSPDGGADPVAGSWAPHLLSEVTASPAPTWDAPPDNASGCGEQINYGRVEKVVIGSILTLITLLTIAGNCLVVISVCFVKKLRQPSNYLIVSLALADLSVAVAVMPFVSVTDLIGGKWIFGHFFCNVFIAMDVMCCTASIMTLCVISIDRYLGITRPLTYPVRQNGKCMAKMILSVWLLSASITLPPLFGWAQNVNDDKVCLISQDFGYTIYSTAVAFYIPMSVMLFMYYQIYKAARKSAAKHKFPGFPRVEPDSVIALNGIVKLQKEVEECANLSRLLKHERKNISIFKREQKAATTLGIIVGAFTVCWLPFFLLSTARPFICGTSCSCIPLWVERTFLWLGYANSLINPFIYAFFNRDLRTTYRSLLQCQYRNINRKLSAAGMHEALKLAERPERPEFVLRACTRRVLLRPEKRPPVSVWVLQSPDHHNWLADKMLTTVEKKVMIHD
Test: Radioligand binding assay, [125I]LSD, cloned human 5HT7 receptor on Flashplate
Conditions: for inhibition at 1 µM: read-out: %-Inhib. (10^−6 M)
Protocol: The protocol assay was essentially the recommended protocol in the Technical Data Sheet by PerkinEmer Life and Analytical Sciences. The Mass membrane protein/well was typically 12 μg and the Receptor/well was about 9-10 fmoles. The Flashplate were let equilibrate at room temperature for one hour before the addition of the components of the assay mixture. The binding buffer was: 50 mM Tris-HCl, pH 7.4, containing 10 mM MgCl2, 0.5 mM EDTA and 0.5% BSA. […] Nonspecific binding was determined with 50 μM of Clozapine. The assay volume was 25 μl. TopSeal-A were applied onto Flashplate microplates and they were incubated at room temperature for 240 minutes in darkness.

[1] = compound at 10^−6 M, radioligand [125I]LSD 0.82 nM
[2] = 5HT7 binding experiments on the screening selection

SMILES: Clc1ccc(CN2CCN(c3cccc4[nH]ccc34)CC2)cn1 [Ex 25, 4-(4-((6-chloropyridin-3-yl)methyl)piperazin-1-yl)-1H-indole]
IC50: 328 nM | inhibition at 1 µM: 66.8%

SMILES: CC(C)Oc1ccccc1N1CCN(Cc2ccc(-n3ccnc3)cc2)CC1 [e, 1-(4-(1H-imidazol-1-yl)benzyl)-4-(2-isopropoxyphenyl)piperazine]
affinity for the 5HT7 receptor (in words): good affinity

SMILES: Fc1ccccc1CN1CCN(c2cccc3[nH]ccc23)CC1 [Ex 31, 4-(4-(2-fluorobenzyl)piperazin-1-yl)-1H-indole]
IC50 (radioligand [125I]LSD 0.82 nM): 460 nM | inhibition at 1 µM: 82.6%

SMILES: COc1ccc(CN2CCN(c3ccccc3OC(C)C)CC2)c(OC)n1 [Ex 15, 1-((2,6-dimethoxypyridin-3-yl)methyl)-4-(2-isopropoxyphenyl)piperazine]
IC50: 82.2 nM | inhibition at 1 µM: 92.2%

SMILES: CCOc1ccccc1N1CCN(Cc2c[nH]c3ccccc23)CC1 [c, 3-((4-(2-ethoxyphenyl)piperazin-1-yl)methyl)-1H-indole]
affinity for the 5HT7 receptor (in words): good affinity

SMILES: N#CCCCN1CCN(c2cccc3[nH]ccc23)CC1 [Ex 7, 4-(4-(1H-indol-4-yl)piperazin-1-yl)butanenitrile]
IC50 (radioligand [125I]LSD 0.82 nM): 713 nM | inhibition at 1 µM: 49.6%

SMILES: Clc1ccc(CN2CCN(c3cccc4[nH]ccc34)CC2)cc1Cl [Ex 34, 4-(4-(3,4-dichlorobenzyl)piperazin-1-yl)-1H-indole]
IC50 (radioligand [125I]LSD 0.82 nM): 1240 nM | inhibition at 1 µM: 54.7%

SMILES: CC[C@H](C)C(=O)N1CCN(Cc2cc(C(C)C)ccc2OC)CC1 [Ex 6, (S)-1-(4-(5-isopropyl-2-methoxybenzyl)piperazin-1-yl)-2-methylbutan-1-one]
inhibition at 1 µM [1]: 15%

SMILES: Clc1ccccc1CN1CCN(c2cccc3[nH]ccc23)CC1 [Ex 33, 4-(4-(2-chlorobenzyl)piperazin-1-yl)-1H-indole]
IC50 (radioligand [125I]LSD 0.82 nM): 223 nM | inhibition at 1 µM: 78.2%

SMILES: O=c1[nH]c2ccccc2n1C1=CCN(CCOc2ccccc2)CC1 [k, 1-(1-(2-phenoxyethyl)-1,2,3,6-tetrahydropyridin-4-yl)-1H-benzo[d]imidazol-2(3H)-one]
affinity for the 5HT7 receptor (in words) [2]: good affinity

SMILES: c1ccc(OCCN2CCN(c3cccc4[nH]ccc34)CC2)cc1 [Ex 3, 4-(4-(2-phenoxyethyl)piperazin-1-yl)-1H-indole]
inhibition at 1 µM [1]: 53.7% | IC50 (radioligand [125I]LSD 0.82 nM): 1940 nM

SMILES: COc1ccc(C(C)C)cc1CN1CCN(C(=O)Cc2c[nH]c3ccccc23)CC1 [Ex 11, 2-(1H-indol-3-yl)-1-(4-(5-isopropyl-2-methoxybenzyl)piperazin-1-yl)ethanone]
inhibition at 1 µM: 16.3%

SMILES: O=c1[nH]c2ccccc2n1C1CCN(CCOc2ccccc2)CC1 [compound i, 1-(1-(2-phenoxyethyl)piperidin-4-yl)-1H-benzo[d]imidazol-2(3H)-one]
affinity for the 5HT7 receptor (in words) [2]: good affinity

SMILES: COc1ccc(C(C)C)cc1CN1CCN(C(=O)c2ccsc2)CC1 [Ex 8, (4-(5-isopropyl-2-methoxybenzyl)piperazin-1-yl)(thiophen-3-yl)methanone]
inhibition at 1 µM [1]: 30.5%

SMILES: FC(F)(F)c1cccc(N2CCN(Cc3cccnc3Nc3ccccc3)CC2)c1 [Ex 14, N-phenyl-3-((4-(3-(trifluoromethyl)phenyl)piperazin-1-yl)methyl)pyridin-2-amine]
inhibition at 1 µM [1]: 19.5%

SMILES: O=C(c1cccs1)C1CN2CCC1CC2 (stereo not drawn) [l, quinuclidin-3-yl(thiophen-2-yl)methanone]
affinity for the 5HT7 receptor (in words): good affinity

SMILES: O=c1[nH]c2ccccc2n1C1=CCN(CCCOc2ccccc2)CC1 [j, 1-(1-(3-phenoxypropyl)-1,2,3,6-tetrahydropyridin-4-yl)-1H-benzo[d]imidazol-2(3H)-one]
affinity for the 5HT7 receptor (in words): good affinity

SMILES: CN(C)S(=O)(=O)c1ccc2[nH]cc(CCN)c2c1 [compound a, 3-(2-aminoethyl)-N,N-dimethyl-1H-indole-5-sulfonamide]
affinity for the 5HT7 receptor (in words): good affinity

SMILES: c1ccc2cc(CN3CCN(c4cccc5[nH]ccc45)CC3)ccc2c1 [Ex 32, 4-(4-(naphthalen-2-ylmethyl)piperazin-1-yl)-1H-indole]
IC50 (radioligand [125I]LSD 0.82 nM): 760 nM | inhibition at 1 µM: 78.3%

SMILES: O=[N+]([O-])c1ccc(N2CCN(Cc3cccnc3Nc3ccccc3)CC2)cc1 [Ex 26, 3-((4-(4-nitrophenyl)piperazin-1-yl)methyl)-N-phenylpyridin-2-amine]
inhibition at 1 µM [1]: -4.6%

SMILES: Cn1cc(CN2CCN(c3cccc(C(F)(F)F)c3)CC2)c(=O)n(C)c1=O [Ex 17, 1,3-dimethyl-5-((4-(3-(trifluoromethyl)phenyl)piperazin-1-yl)methyl)pyrimidine-2,4(1H,3H)-dione]
inhibition at 1 µM [1]: 28.5%

SMILES: COc1ccccc1N1CCN(CCC(=O)Nc2ccc3c(c2)CCC3)CC1 [f, N-(2,3-dihydro-1H-inden-5-yl)-3-(4-(2-methoxyphenyl)piperazin-1-yl)propanamide]
affinity for the 5HT7 receptor (in words) [2]: good affinity

SMILES: Cc1cccc(-n2c(=O)c(CN3CCN(c4cccc5[nH]ccc45)CC3)cc3cccnc32)c1 [Ex 20, 3-((4-(1H-indol-4-yl)piperazin-1-yl)methyl)-1-m-tolyl-1,8-naphthyridin-2(1H)-one]
inhibition at 1 µM [1]: 51.9% | IC50 (radioligand [125I]LSD 0.82 nM): 423 nM

SMILES: COc1ccccc1N1CCN(CCC(O)c2ccccc2)CC1 (stereo not drawn) [d, 3-(4-(2-methoxyphenyl)piperazin-1-yl)-1-phenylpropan-1-ol]
affinity for the 5HT7 receptor (in words) [2]: good affinity

SMILES: Fc1cc2c(c(CN3CCN(C4CCc5ccccc5C4)CC3)c1)OCOC2 (stereo not drawn) [Ex 4, 1-((6-fluoro-4H-benzo[d][1,3]dioxin-8-yl)methyl)-4-(1,2,3,4-tetrahydronaphthalen-2-yl)piperazine]
inhibition at 1 µM [1]: 49% | IC50 (radioligand [125I]LSD 0.82 nM): 2330 nM

Now from value to compound:

inhibition at 1 µM [1]: 9.4%
SMILES: COc1ccc(CN2CCN(c3cccc(C(F)(F)F)c3)CC2)c(OC)n1 [Ex 21, 1-((2,6-dimethoxypyridin-3-yl)methyl)-4-(3-(trifluoromethyl)phenyl)piperazine]

inhibition at 1 µM [1]: 35.9%
SMILES: COc1ccc(C(C)C)cc1CN1CCN(c2ccc(Cl)cc2)CC1 [Ex 23, 1-(4-chlorophenyl)-4-(5-isopropyl-2-methoxybenzyl)piperazine]

inhibition at 1 µM [1]: 51.3%
SMILES: Clc1ccc(CN2CCN(c3cccc4[nH]ccc34)CC2)c(Cl)c1 [Ex 35, 4-(4-(2,4-dichlorobenzyl)piperazin-1-yl)-1H-indole]

inhibition at 1 µM [1]: 28.8%
SMILES: c1ccc2[nH]c(CN3CCN(c4cccc5[nH]ccc45)CC3)nc2c1 [Ex 28, 2-((4-(1H-indol-4-yl)piperazin-1-yl)methyl)-1H-benzo[d]imidazole]

inhibition at 1 µM [1]: 83.1% | IC50 (radioligand [125I]LSD 0.82 nM): 339 nM
SMILES: c1ccc(CN2CCN(c3cccc4[nH]ccc34)CC2)cc1 [Ex 30, 4-(4-benzylpiperazin-1-yl)-1H-indole]

inhibition at 1 µM [1]: 48.9%
SMILES: COc1ccc(C(C)C)cc1CN1CCN(c2ncccn2)CC1 [Ex 27, 2-(4-(5-isopropyl-2-methoxybenzyl)piperazin-1-yl)pyrimidine]

inhibition at 1 µM [1]: 12.1%
SMILES: Cc1ccc(N2CCN(Cc3ccc(OC4CCCCO4)cc3)CC2)c(C)c1 (stereo not drawn) [Ex 13, 1-(2,4-dimethylphenyl)-4-(4-(tetrahydro-2H-pyran-2-yloxy)benzyl)piperazine]

inhibition at 1 µM [1]: -0.3%
SMILES: COc1ccc(CN2CCN(c3ccc(OC)c(OC)c3)CC2)c(OC)n1 [Ex 12, 1-(3,4-dimethoxyphenyl)-4-((2,6-dimethoxypyridin-3-yl)methyl)piperazine]

inhibition at 1 µM [1]: 14.3%
SMILES: Cc1cc(NC(=O)CN2CCN(c3cccc4[nH]ccc34)CC2)n(C)n1 [Ex 5, 2-(4-(1H-indol-4-yl)piperazin-1-yl)-N-(1,3-dimethyl-1H-pyrazol-5-yl)acetamide]

inhibition at 1 µM [1]: 22.3%
SMILES: Cn1cc(CN2CCN(c3ccccc3)CC2)c2ccccc21 [Ex 1, 1-methyl-3-((4-phenylpiperazin-1-yl)methyl)-1H-indole]

inhibition at 1 µM [1]: 41.6%
SMILES: COc1ccc(C(C)C)cc1CN1CCN(c2ccc(C)cc2C)CC1 [Ex 24, 1-(2,4-dimethylphenyl)-4-(5-isopropyl-2-methoxybenzyl)piperazine]

inhibition at 1 µM [1]: 114% | IC50 (radioligand [125I]LSD 0.82 nM): 109 nM
SMILES: COc1ccc(CN2CCN(c3cccc4[nH]ccc34)CC2)c(OC)n1 [Ex 22, 4-(4-((2,6-dimethoxypyridin-3-yl)methyl)piperazin-1-yl)-1H-indole]

inhibition at 1 µM [1]: 15.1%
SMILES: Oc1cccc(N2CCN(Cc3ccc(OC(F)(F)F)cc3)CC2)c1 [Ex 2, 3-(4-(4-(trifluoromethoxy)benzyl)piperazin-1-yl)phenol]

inhibition at 1 µM [1]: 8.8%
SMILES: COc1ccc(CN2CCN(c3ccc(C)cc3C)CC2)c(OC)n1 [Ex 16, 1-((2,6-dimethoxypyridin-3-yl)methyl)-4-(2,4-dimethylphenyl)piperazine]

inhibition at 1 µM [1]: 59.5% | IC50 (radioligand [125I]LSD 0.82 nM): 1140 nM
SMILES: c1cc(N2CCN(Cc3ccc(OC4CCCCO4)cc3)CC2)c2cc[nH]c2c1 (stereo not drawn) [Ex 19, 4-(4-(4-(tetrahydro-2H-pyran-2-yloxy)benzyl)piperazin-1-yl)-1H-indole]

inhibition at 1 µM [1]: 16.6%
SMILES: Cc1ccc(N2CCN(Cc3ccc(Cl)nc3)CC2)c(C)c1 [Ex 10, 1-((6-chloropyridin-3-yl)methyl)-4-(2,4-dimethylphenyl)piperazine]

inhibition at 1 µM [1]: 41.5%
SMILES: O=[N+]([O-])c1cccc(CN2CCN(c3cccc4[nH]ccc34)CC2)c1 [Ex 36, 4-(4-(3-nitrobenzyl)piperazin-1-yl)-1H-indole]

inhibition at 1 µM [1]: 12.3%
SMILES: COc1ccc(CN2CCN(c3ccc(Cl)cc3)CC2)c(OC)n1 [Ex 18, 1-(4-chlorophenyl)-4-((2,6-dimethoxypyridin-3-yl)methyl)piperazine]

affinity for the 5HT7 receptor (in words) [2]: good affinity
SMILES: CC(C)Oc1ccccc1N1CCN(Cc2ccc(Cl)nc2)CC1 [b, 1-((6-chloropyridin-3-yl)methyl)-4-(2-isopropoxyphenyl)piperazine]
